A word on the IC50: it is the concentration that inhibits the measured activity by half. By MIC is commonly meant the least concentration at which growth counts as inhibited.

Some results are limits rather than exact numbers.

One assay concerns HeLa. The assay can be described thus: Cytotoxicity against human HeLa cells assessed as reduction in cell viability after 72 hrs by MTT assay. It counts as functional, cell-based. Background: Tetrazolium dyes change colour on reduction, which living cells bring about.
A further assay deals with A549. The assay can be described thus: Cytotoxicity against human A549 cells assessed as reduction in cell viability after 72 hrs by MTT assay. It counts as functional, cell-based. As to conditions: A549, 72 h.
In the next assay the test system is MCF7. The assay can be described thus: cells. As to conditions: Homo sapiens, MCF7, 72 h.
The next assay concerns Micrococcus luteus. Nature of the assay: Antimicrobial activity against Micrococcus lutes assessed as reduction in microbial growth incubated for 24 hrs by agar dilution method. It counts as functional. On the technique in general: In agar dilution, organisms are placed on agar that contains the substance at set levels.

Description for MCF7: Cytotoxicity against human MCF7 cells assessed as reduction in cell viability after 72 hrs by MTT assay

Take `CC(=O)O[C@@H]1/C=C/C(C)=C/C[C@H](O)/C=C/C(C)=C/[C@@H](NC(=O)[C@H](C)O)[C@]2(C)C(=O)O[C@H](C1)[C@@H](C)C2=O`: the results for the IC50 in the assay on HeLa, with A549 and in the assay on MCF7 were 48.2 µM, above 100 µM and 47.1 µM, respectively.

For `O=c1[nH]cc(F)c(=O)[nH]1` [FLUOROURACIL], the results for the IC50 in the assay with HeLa, in the assay on A549 and with MCF7 were 32.1 µM, 6.6 µM and 22.8 µM, respectively.

For the compound `CC(=O)C(=O)N[C@@H]1/C=C(C)/C=C/[C@@H](O)C/C=C(C)/C=C/[C@@H](O)C/C=C(\C)C(=O)[C@@H]1C`, the IC50 with HeLa, with A549 and in the assay with MCF7 was above 100 µM each time.

For `CC(=O)O[C@H]1C(=O)[C@@]2(C)[C@H]([C@H](OC(=O)c3ccccc3)[C@]3(O)C[C@H](OC(=O)[C@H](O)[C@@H](NC(=O)c4ccccc4)c4ccccc4)C(C)=C1C3(C)C)[C@]1(OC(C)=O)CO[C@@H]1C[C@@H]2O` [PACLITAXEL], the values for the IC50 in the assay with HeLa, with A549 and in the assay with MCF7 were below 0.00625 µM, 0.0295 µM and above 0.0811 µM, respectively.

`CC(=O)C(=O)N[C@@H]1/C=C(C)/C=C/[C@@H](O)C/C=C(C)/C=C/[C@@H](O)C/C=C(\C)C(=O)[C@H]1C`: the IC50 in the assay on HeLa is 72.9 µM; in the assay with A549, above 100 µM; in the assay on MCF7, above 100 µM.

For `CC(=O)C(=O)N[C@@H]1/C=C(C)/C=C\[C@@H](O)C/C=C(C)/C=C/[C@@H](O)C[C@H]2OC(=O)[C@]1(C)C(=O)[C@@H]2C`, the IC50 in the assay with HeLa was 23.3 µM; in the assay with A549, above 100 µM; with MCF7, above 100 µM. The MIC in the assay with Micrococcus luteus turned out to be 6.2 µM.

As for `CC1=C\C[C@H](O)/C=C/C(C)=C/[C@@H](NC(=O)[C@H](C)O)[C@]2(C)C(=O)O[C@H](C[C@H](O)\C=C\1)[C@@H](C)C2=O`, the IC50 was 24.8 µM with HeLa, above 100 µM in the assay with A549 and 75.7 µM in the assay on MCF7.

In the case of `CC1=C\C[C@H](O)/C=C/C(C)=C/[C@@H](NC(=O)[C@H](C)O)[C@H](C)C(=O)/C(C)=C/C[C@H](O)\C=C\1`, the IC50 with HeLa is 13.3 µM; in the assay on A549, above 100 µM; in the assay on MCF7, above 100 µM.

With `CC1=C\C[C@H](O)/C=C/C(C)=C/[C@@H](NC(=O)[C@H](C)O)[C@@H](C)C(=O)/C(C)=C/C[C@H](O)\C=C\1`, the IC50 with HeLa is 45.4 µM; in the assay on A549, above 100 µM; in the assay on MCF7, 42.8 µM.
